These results are taken from US20250136563A1, “THIADIAZOLONE DERIVATIVES USEFUL AS AMPK ACTIVATOR” (Betagenon AB, priority 2021, published 2025).

“Also recorded” adds a separate entry of the source.

Data set [1] can be described thus: Single dose oral pharmacokinetic study of Compounds 1 and 3 in Sprague Dawley rats. Format: in vivo. Particulars: equimolar doses. As for the experimental part: 10.0 mL of 2% w/v methyl cellulose solution in phosphate buffer (pH 7.5) was added to a 100 mL conical flask along with 1 g of 2 mm glass beads. The solution was vigorously stirred on a magnetic stirrer. 100 mg of Compound 1 was slowly added to the solution, and the solution was vigorously stirred for approximately 1 h. The pH of the formulation was measured to be 7.49. Each formulation was freshly prepared prior to administration to the animals. The final concentration of Compound 1 in of the formulation was 10 mg/mL. The formulation was administered at 5 mL/kg body weight.
6 mL of 2% w/v methyl cellulose solution in phosphate buffer (pH 7.5) was added to a 25 mL of conical flask together with 1 g of 2 mm glass beads. The solution was vigorously stirred on a magnetic stirrer. 78 mg of Compound 3 was slowly added to the solution, and the solution was vigorously stirred for approximately 1 h. The pH of the formulation was measured to be 7.41. […]
The results for the single dose oral pharmacokinetic study in rats are tabulated in Tables 5 and 6 below and are shown graphically in FIG. 2. In Table 5, the Cmax, Tmax, AUClast, AUCinf, AUCextrap, T1/2 and MRTlast values are for 4-chloro-N-[2-[(4-chlorophenyl)methyl]-3-oxo-1,2,4-thiadiazol-5-yl]benzamide (Compound 1), which was detected following the administration of both Compounds 1 and 3.

The nature of data set [2]: Stability in buffers pH 1.20, 7.40 and 9.20 (Examples 26 and 27).
Protocol: The stability of Compound 17 was assessed in buffers with pH 1.20, 7.40 and 9.20. The pH 1.20 study was conducted using an HCl buffer. A phosphate buffer was used for the pH 7.40 medium, and an alkaline borate buffer was used for the pH 9.20 medium.
HCl buffer—Potassium chloride (1.491 g) was dissolved in 100 mL of Ultrapure water type-1 to get 0.2 M KCl solution. About 50 mL of 0.2 M KCl was taken in a beaker and the pH was adjusted to 1.20 using 0.2 M HCl solution. The final volume was made up to 200 mL using Ultrapure water type-1 and stored at room temperature (22±3° C.).
Phosphate buffer—Potassium phosphate monobasic (2.722 g) was dissolved in 100 mL of Ultrapure water type-1 to get 0.2 M solution. About 50 mL of 0.2 M solution was taken in a beaker and the pH was adjusted to 7.40 using 0.2 M NaOH solution. The final volume was made up to 200 mL using Ultrapure water type-1 and stored at room temperature (22±3° C.).
Alkaline borate buffer—Boric acid (1.237 g) and potassium chloride (1.491 g) were dissolved in 100 mL of Ultrapure water type-1 to get 0.2 M solution. About 50 mL of 0.2 M solution was taken in beaker and the pH was adjusted to 9.20 using 0.2 M NaOH solution. The final volume was made up to 200 mL using Ultrapure water type-1 and stored at room temperature (22±3° C.).
5 μM solutions of Compound 17 in each buffer were prepared with 5 mM DMSO stock solutions. The solutions were incubated at 22 t 3° C. for 120 minutes, with shaking at 400 rpm using a thermomixer.
After 0, 15, 30, 60 and 120 minute intervals, aliquots of sufficient volume of the compound solutions were taken, diluted and analysed to determine the stability of Compound 17 in each solution, as well as the amount of Compound 1 present. The amount of Compound 1 present was compared to the amount expected assuming full conversion of Compound 17 to Compound 1.
The stability of Compounds 3, 6, 9, 20 and 23 was tested using the same methods as described above for Compound 17.
A short description of data set [3]: Stability in HCl buffer (pH 1.20), 37° C. It is filed as physicochemical. The conditions noted are these: for % remaining compared to 0.0 min: HCl buffer pH 1.20, 37° C. The procedure:
5 μM solutions of Compound 1 and Compound 4 (i.e. the citric acid salt of Compound 3) in HCl buffer (pH: 1.20) were prepared with 5 mM DMSO stock solutions.

Data set [4] relates to AMPK. The experiment in a line: Activation of AMPK: Western blot of p-T172 AMPKα in INS-1E insulinoma cells. It is filed as cell-based. Particulars: for ratio between p-T172 AMPK and non-phosphorylated AMPK: INS-1E cells, 4 h, control 1.00. As for the experimental part: INS-1E cells were cultivated as described in Steneberg et al., JCI Insight. 2018; 3(12):e99114. https://doi.org/10.1172/jci.insight.99114, using 5% instead of 10% fetal bovine serum when plated for treatment.
Compound 3 was dissolved at 10 mM in DMSO and frozen at −20° C.
The INS-1E cells were treated in serum free medium with increasing doses of Compound 3 for 4 hours in accordance with the methods described in Steneberg et al., JCI Insight. 2018; 3(12):e99114. https://doi.org/10.1172/jci.insight.99114.
Western blot analysis of the INS-1E cells was performed as described in Steneberg et. al., JCI Insight. 2018; 3(12):e99114. https://doi.org/10.1172/jci.insight.99114. The cell lysates were passed through a 30-gauge needle, ˜8-times and centrifuged for 10 min at +4° C. at 14000 rpm. Quantified values for AMPKα, and phosphorylated-T172 AMPKα, were normalized toward the quantified values for β-Actin.
(In western blotting, separated proteins are transferred to a membrane and probed.)

Regarding `CN(C)CC(=O)OCn1c(=O)n(Cc2ccc(Cl)cc2)s/c1=N\C(=O)c1ccc(Cl)cc1` [Compound 3, Dimethylamino-Acetic Acid 5-[(Z)-4-chloro-benzoylimino]-2-(4-chloro-benzyl)-3-oxo-[1,2,4]thiadiazolidin-4-ylmethyl Ester], the “increase in systemic exposure of Compound 1 after oral Compound 3 versus oral Compound 1” value in data set [1] was “ten-fold”. In addition, the figures for the “% remaining after 15 min” value in data set [2] (buffer pH 1.2) and in data set [2] (buffer pH 7.4) were 97% and 46%, respectively. Also, the “% remaining after 30 min” value is 83% in data set [2] (buffer pH 1.2) and 16% in data set [2] (buffer pH 7.4). The “% remaining compared to 0.0 min” value in data set [3] (0.0 min) was determined as 100.00%; in data set [3] (15 min), 96.92%; in data set [3] (30 min) it was 83.74%; in data set [3] (60 min), 86.54%; in data set [3] (120 min), 88.31%. Besides, the “stability in acidic solutions (in words)” value in data set [3] (pH 1.2) is “greater stability than Compound 1”. Moreover, the “ratio between p-T172 AMPK and non-phosphorylated AMPK” value in data set [4] (1.25 μM) amounted to 1.24; in data set [4] (2.5 μM) it was 2.24; in data set [4] (5 μM), 5.99. Also, the “phosphorylation of AMPK (in words)” value in data set [4] (cultured INS-1E cells) was “increases phosphorylation of AMPK in a dose-dependent manner; also recorded: increases phosphorylated-T172 AMPK in a dose-dependent manner”.
